Data: US9278963B2, “Pyrimidine hydroxy amide compounds as histone deacetylase inhibitors” (Acetylon Pharmaceuticals, Inc., priority 2013, dated 2016)

Assays:
[1] = tested on: human CD34+ bone marrow cells; experiment: Cellular viability of cultured CD34+ bone marrow cells; details: 1 μM, treatment for 4 days
[2] = tested on: SK-N-BE(2) or SH-SY5Y neuroblastoma cells; experiment: Neuroblastoma differentiation index; format: cell-based; details: for differentiation index, low-concentration ATRA: 0.25 μM ATRA, alone or with HDAC inhibitor; for differentiation index: varying concentrations, alone
Protocol: SK-N-BE(2) or SH-SY5Y neuroblastoma cells were treated with varying concentrations of either Compound X or Y, and/or ATRA (all trans retinoic acid). The differentiation index was measured.
SK-N-BE(2) or SH-SY5Y neuroblastoma cells were treated with varying concentrations of either Compound X or Y, and/or ATRA (all trans retinoic acid). The differentiation index was measured. As a control, SK-N-BE(2) or SH-SY5Y neuroblastoma cells were treated with varying concentrations of ATRA.

[3] = tested on: SK-N-BE(2) neuroblastoma cells; experiment: Neuroblastoma cell cycle and p21, SK-N-BE(2); format: cell-based; details: 4 days
Protocol: SK-N-BE(2) neuroblastoma cells were treated with varying concentrations of either Compound X or Y, and/or ATRA (all trans retinoic acid). The percentage of the population of the cells at various stages of the cell cycle were measured after 4 days. In addition, the fold change of p21 was also calculated. […] The HDACi/ATRA combination effects were modest, with little difference compared to single agents.

[4] = tested on: SH-SY5Y neuroblastoma cells; experiment: Neuroblastoma cell cycle by flow cytometry, SH-SY5Y; format: cell-based; details: for cell cycle stages and fold change of p21: 4 days; for percent of the cell population in G2, S, G1 and Sub G1 phase: 72 hours, 0.5, 2 and 5 μM (ATRA 1 μM)
Protocol: The following is a quick summary of the neuroblastoma cell cycle experiments. Adherent cells were plated into 12-well plates at 10^6 cells/well and allowed to adhere for 2-4 hours. Compounds were dispensed in DMSO at the indicated concentrations using an automated liquid handling system (Tecan D300) and incubated for the indicated times at 37° C. with 5% CO2. Cells were harvested with enzyme-free cell disassociation solution and washed with buffered saline. Cells were fixed overnight with 100% ethanol. Cell cycle was assessed by flow cytometry using the Molecular Probes FxCycle PI/RNase Staining Solution kit according to manufacture protocols.
The protocol for the cell cycle experiments was as follows. The day before the experiment, the cells were fed in the flask by doubling the media. Then, the cells were harvested by adding non-enzymatic cell dissociation media and incubating at 37° C. for 15 minutes. Next, the cells were transferred to a 50 ml tube and pipet to create a single-cell suspension. The cells were then washed with PBS buffer. Then, the cells were resuspended in complete media at 5×10^5 cells per ml. Next, 2 ml of cells were transferred to 12-well plates. Then, the treatment compounds were dispensed into each well using the D300 liquid handler. The cells were incubated for the indicated time at 37° C. Then, the cells were harvested by adding 500 μl enzyme free cell dissociation solution and incubating at 37° C. for 15 minutes. Next, the cells were spun into a pellet and then washed with PBS. Then, 500 μl 100% EtOH was added and incubated at 4° C. overnight. Then, the cells were washed 3× with PBS. The cells were then resuspended in […] FxCycle PI/RNase solution, and incubated for 2-4 hours at room temperature. Finally, the cells were assayed by flow cytometry.
SH-SY5Y neuroblastoma cells were treated with varying concentrations of either Compound X or Y, and/or ATRA (all trans retinoic acid). […] In addition, the fold change of p21 was also calculated. […] The HDACi/ATRA combination effects were modest, with little difference compared to single agents.

HDAC1 = HDAC1 (Homo sapiens (Human), UniProt Q13547); experiment: HDAC enzyme assay, HDAC1; format: biochemical
HDAC1, sequence (Q13547 whole entry): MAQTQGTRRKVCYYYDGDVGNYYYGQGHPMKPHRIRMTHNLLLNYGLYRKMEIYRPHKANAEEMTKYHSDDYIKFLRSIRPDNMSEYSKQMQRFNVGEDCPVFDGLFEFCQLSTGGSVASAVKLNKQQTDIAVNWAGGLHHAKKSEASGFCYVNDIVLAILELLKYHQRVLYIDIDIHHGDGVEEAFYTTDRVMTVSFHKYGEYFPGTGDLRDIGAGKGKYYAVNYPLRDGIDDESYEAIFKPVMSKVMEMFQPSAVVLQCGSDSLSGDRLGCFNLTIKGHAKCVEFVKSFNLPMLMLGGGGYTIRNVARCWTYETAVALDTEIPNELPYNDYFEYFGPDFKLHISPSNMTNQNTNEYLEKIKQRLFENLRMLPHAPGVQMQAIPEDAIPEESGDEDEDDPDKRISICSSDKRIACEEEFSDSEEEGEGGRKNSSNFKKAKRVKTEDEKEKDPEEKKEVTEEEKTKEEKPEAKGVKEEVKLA
Protocol: (§1) Compounds for testing were diluted in DMSO to 50 fold the final concentration and a ten point three fold dilution series was made. The compounds were diluted in assay buffer (50 mM HEPES, pH 7.4, 100 mM KCl, 0.001% Tween-20, 0.05% BSA, 20 μM TCEP) to 6 fold their final concentration. The HDAC enzymes (purchased from BPS Biosciences) were diluted to 1.5 fold their final concentration in assay buffer. The tripeptide substrate and trypsin at 0.05 μM final concentration were diluted in assay buffer at 6 fold their final concentration. The final enzyme concentrations used in these assays were 3.3 ng/ml (HDAC1), 0.2 ng/ml (HDAC2), 0.08 ng/ml (HDAC3) and 2 ng/ml (HDAC6). The final substrate concentrations used were 16 μM (HDAC1), 10 μM (HDAC2), 17 μM (HDAC3) and 14 μM (HDAC6).
(§2) Five μl of compounds and 20 μl of enzyme were added to wells of a black, opaque 384 well plate in duplicate. Enzyme and compound were incubated together at room temperature for 10 minutes. Five μ1 of substrate was added to each well, the plate was shaken for 60 seconds and placed into a Victor 2 microtiter plate reader. The development of fluorescence was monitored for 60 min and the linear rate of the reaction was calculated. The IC50 was determined using Graph Pad Prism by a four parameter curve fit.

[5] = tested on: BE(2)-C neuroblastoma cells; experiment: Neuroblastoma maturation gene expression, BE(2)-C; format: cell-based
Protocol: (§3) The following is a quick summary of the HDAC neuroblastoma maturation experiments. Adherent cells were plated into 12- or 24-well plates at 10^6 cells/well and allowed to adhere for 2-4 hours. Compounds were dispensed in DMSO at the indicated concentrations using an automated liquid handling system (Tecan D300) and incubated for the indicated times at 37° C. with 5% CO2. Cells were harvested and RNA extracted using the Qiagen RNeasy Mini Kit according to manufacture protocols. The RNA was quantified and relative expression levels were assessed using the Applied Biosystems TaqMan RNA-to-Ct Kit according to manufacture protocols using the indicated TaqMan probes.
(§4) The protocol for the maturation experiments was as follows. The day before the experiment, the cells were fed in the flask by doubling the media. The cells were then harvested by adding non-enzymatic cell dissociation media and incubating at 37° C. for 15 minutes. The cells were transferred to a 50 ml tube and pipet to create a single-cell suspension. The cells were washed with PBS buffer. The cells were then resuspended in complete media at 5×10^5 cells per ml. Next, 2 ml of cells were transferred to 24- or 12-well plates. The treatment compounds were then dispensed into each well using the D300 liquid handler. The cells were then incubated for the indicated time at 37° C. The cells were harvested by scraping the cells and transferring to a 2 ml tube. The cells were spun to form a pellet. Next, RNA was extracted using the Qiagen RNeasy Mini kit according to manufacture protocols. The RNA concentration was recorded. The relative RNA levels were assessed using the Applied Biosystems TaqMan RNA-to-Ct kit according to manufacture protocols using the indicated Taqman probes.

[6] = tested on: SH-SY5Y neuroblastoma cells; experiment: Neuroblastoma maturation gene expression, SH-SY5Y; format: cell-based; details: 72 hours, 1 μM
Protocol: as §3
as §4, with “The treatment compounds were then dispensed into each well using the D300 liquid handler. The cells were then incubated for the indicated time at 37° C. The cells were harvested by scraping the cells and transferring to a 2 ml tube. The cells were spun to form a pellet. Next, RNA was extracted using the Qiagen RNeasy Mini kit according to manufacture protocols.” left out

HDAC3 = HDAC3 (Homo sapiens (Human), UniProt O15379); experiment: HDAC enzyme assay, HDAC3; format: biochemical
HDAC3, sequence (O15379 whole entry): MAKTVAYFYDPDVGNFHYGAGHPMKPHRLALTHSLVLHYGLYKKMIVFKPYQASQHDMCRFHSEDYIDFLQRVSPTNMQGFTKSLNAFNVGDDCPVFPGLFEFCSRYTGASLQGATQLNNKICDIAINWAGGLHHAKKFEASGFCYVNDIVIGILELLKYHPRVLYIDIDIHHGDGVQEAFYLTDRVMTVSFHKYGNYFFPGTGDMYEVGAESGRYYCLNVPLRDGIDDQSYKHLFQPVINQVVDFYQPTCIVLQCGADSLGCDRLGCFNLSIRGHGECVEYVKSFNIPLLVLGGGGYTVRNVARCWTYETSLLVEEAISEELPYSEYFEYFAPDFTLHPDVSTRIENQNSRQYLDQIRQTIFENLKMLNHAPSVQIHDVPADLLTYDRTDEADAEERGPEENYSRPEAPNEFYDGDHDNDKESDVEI
HDAC3, sequence (Q9Y618 395-489 partner): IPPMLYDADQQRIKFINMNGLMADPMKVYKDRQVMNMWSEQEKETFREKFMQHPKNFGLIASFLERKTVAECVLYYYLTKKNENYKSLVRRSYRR
Protocol: as §1, with “The HDAC enzymes (purchased from BPS Biosciences) were diluted to 1.5 fold their final concentration in assay buffer.” left out, “(HDAC6).” for “(HDAC6). The final substrate concentrations used were 16 μM (HDAC1), 10 μM (HDAC2), 17 μM (HDAC3) and 14 μM (HDAC6).”
as §2

HDAC2 = HDAC2 (Homo sapiens (Human), UniProt Q92769); experiment: HDAC enzyme assay, HDAC2; format: biochemical
HDAC2, sequence (Q92769 whole entry): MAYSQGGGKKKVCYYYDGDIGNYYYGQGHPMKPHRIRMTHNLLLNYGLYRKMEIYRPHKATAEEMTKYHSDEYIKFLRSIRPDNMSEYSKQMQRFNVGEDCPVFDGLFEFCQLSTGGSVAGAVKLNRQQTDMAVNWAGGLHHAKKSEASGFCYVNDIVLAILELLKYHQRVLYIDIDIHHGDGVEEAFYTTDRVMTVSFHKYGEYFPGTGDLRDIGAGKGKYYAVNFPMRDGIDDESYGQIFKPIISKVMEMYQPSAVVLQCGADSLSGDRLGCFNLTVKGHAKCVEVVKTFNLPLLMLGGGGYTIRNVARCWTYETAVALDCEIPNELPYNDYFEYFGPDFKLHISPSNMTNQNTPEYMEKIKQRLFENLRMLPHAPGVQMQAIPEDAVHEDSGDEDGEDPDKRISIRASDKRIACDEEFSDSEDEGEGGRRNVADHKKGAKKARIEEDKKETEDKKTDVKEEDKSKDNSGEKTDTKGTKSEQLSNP
Protocol: as §1, §2

HDAC6 = HDAC6 (Homo sapiens (Human), UniProt Q9UBN7); experiment: HDAC enzyme assay, HDAC6; format: biochemical
HDAC6, sequence (Q9UBN7 whole entry): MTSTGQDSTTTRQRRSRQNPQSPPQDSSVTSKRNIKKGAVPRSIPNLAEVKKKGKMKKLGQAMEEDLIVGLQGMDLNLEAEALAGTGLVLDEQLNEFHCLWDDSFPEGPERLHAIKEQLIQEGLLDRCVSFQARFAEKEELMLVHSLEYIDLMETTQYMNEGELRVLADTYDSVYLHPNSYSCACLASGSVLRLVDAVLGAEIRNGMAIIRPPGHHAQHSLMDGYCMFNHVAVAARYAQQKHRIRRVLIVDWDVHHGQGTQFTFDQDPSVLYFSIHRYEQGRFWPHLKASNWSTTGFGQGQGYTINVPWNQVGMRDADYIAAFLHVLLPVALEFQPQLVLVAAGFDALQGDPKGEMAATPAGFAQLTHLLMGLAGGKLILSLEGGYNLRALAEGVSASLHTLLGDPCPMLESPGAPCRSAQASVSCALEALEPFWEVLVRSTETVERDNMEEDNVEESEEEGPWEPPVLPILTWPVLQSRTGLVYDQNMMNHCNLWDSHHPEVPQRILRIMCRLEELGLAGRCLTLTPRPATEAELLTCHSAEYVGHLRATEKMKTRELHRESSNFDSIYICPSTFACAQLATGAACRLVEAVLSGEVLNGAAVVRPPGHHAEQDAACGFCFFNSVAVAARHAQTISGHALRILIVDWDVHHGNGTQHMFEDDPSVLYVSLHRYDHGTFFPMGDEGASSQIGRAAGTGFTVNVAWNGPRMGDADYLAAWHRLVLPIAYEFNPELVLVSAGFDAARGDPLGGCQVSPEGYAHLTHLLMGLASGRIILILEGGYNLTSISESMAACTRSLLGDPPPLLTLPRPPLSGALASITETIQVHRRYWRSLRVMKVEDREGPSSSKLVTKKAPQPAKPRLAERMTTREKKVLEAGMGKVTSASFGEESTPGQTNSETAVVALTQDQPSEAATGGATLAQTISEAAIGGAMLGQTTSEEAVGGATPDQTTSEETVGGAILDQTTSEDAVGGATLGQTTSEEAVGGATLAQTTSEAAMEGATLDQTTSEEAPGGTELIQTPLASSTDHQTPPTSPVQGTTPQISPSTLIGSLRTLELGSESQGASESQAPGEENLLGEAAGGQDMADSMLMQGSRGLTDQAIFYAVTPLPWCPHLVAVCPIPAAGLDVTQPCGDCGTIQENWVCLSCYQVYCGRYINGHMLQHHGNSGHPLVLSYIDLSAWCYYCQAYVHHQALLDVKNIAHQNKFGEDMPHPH
Protocol: as §1
as §2, with “fit. The IC50 values obtained for several of the compounds of this invention are found in Table 1.” for “fit.”

O=C(CCCCCCNC(=O)c1cnc(N(c2ccccc2)c2ccccc2)nc1)NO [Compound A, 2-(diphenylamino)-N-(7-(hydroxyamino)-7-oxoheptyl) pyrimidine-5-carboxamide, reference compound]
decrease in cells viability [1]: 20 fold

O=C(CCCCCCNC(=O)c1cnc(N(c2ccccc2)c2ccccc2Cl)nc1)NO [Compound Y, 2-((2-chlorophenyl)(phenyl)amino)-N-(7-(hydroxyamino)-7-oxoheptyl)pyrimidine-5-carboxamide]
differentiation index, low-concentration ATRA [2]: potentiated 0.25 μM ATRA | differentiation index [2]: induced an increase in the differentiation index | cell cycle stages and fold change of p21 [3]: induced cell cycle arrest | cell cycle stages and fold change of p21 [4]: induced cell cycle arrest

Nc1ccc(-c2cccs2)cc1NC(=O)c1ccc2c(c1)cc(C1CC1)n2CCN1CCOCC1 [Compound X, N-(2-amino-5-(thiophen-2-yl)phenyl)-2-cyclopropyl-1-(2-morpholinoethyl)-1H-indole-5-carboxamide]
IC50 (HDAC1): 6 nM | fold change of genes associated with maturation ([5]; 72 hours, 1 μM): alters genes associated with maturation | fold change of genes associated with maturation ([5]; 4 days, 0.5, 1 and 3 μM): alters genes associated with maturation | differentiation index, low-concentration ATRA [2]: potentiated 0.25 μM ATRA | differentiation index [2]: induced an increase in the differentiation index | cell cycle stages and fold change of p21 [3]: induced cell cycle arrest | percent of the cell population in G2, S, G1 and Sub G1 phase [4]: induced similar cell cycle changes in all treatment groups | cell cycle stages and fold change of p21 [4]: induced cell cycle arrest | fold change of genes associated with maturation [6]: alters genes associated with maturation | IC50 (HDAC3): 445 nM | IC50 (HDAC2): 36 nM

CC(=O)N1CCC(Nc2ncc(C(=O)NO)cn2)(c2ccccc2)CC1 [Compound 003, 2-((1-acetyl-4-phenylpiperidin-4-yl)amino)-N-hydroxypyrimidine-5-carboxamide]
IC50 (HDAC1): 346 nM | IC50 (HDAC6): 1.6 nM | IC50 (HDAC3): 840 nM | IC50 (HDAC2): 254 nM

O=C(NO)c1cnc(NC2(c3ccccc3)CCN(C(=O)OCc3ccccc3)CC2)nc1 [Compound 002, benzyl 4-((5-(hydroxycarbamoyl)pyrimidin-2-yl)amino)-4-phenylpiperidine-1-carboxylate]
IC50 (HDAC1): 1010 nM | IC50 (HDAC6): 2.6 nM | IC50 (HDAC3): 1640 nM | IC50 (HDAC2): 983 nM

CNC(=O)N1CCC(Nc2ncc(C(=O)NO)cn2)(c2ccccc2)CC1 [Compound 016, N-hydroxy-2-((1-(methylcarbamoyl)-4-phenylpiperidin-4-yl)amino)pyrimidine-5-carboxamide]
IC50 (HDAC1): 170 nM | IC50 (HDAC6): 1.7 nM | IC50 (HDAC3): 987 nM | IC50 (HDAC2): 207 nM

CC1=C(/C=C/C(C)=C/C=C/C(C)=C/C(=O)O)C(C)(C)CCC1 [ATRA, all trans retinoic acid, reference compound]
differentiation index, low-concentration ATRA [2]: sub-optimal | percent of the cell population in G2, S, G1 and Sub G1 phase [4]: little impact on cell cycle

O=C(NO)c1cnc(NC2(c3ccccc3)CCN(C(=S)Nc3ccccc3)CC2)nc1 [Compound 017, N-hydroxy-2-((4-phenyl-1-(phenylcarbamothioyl)piperidin-4-yl)amino)pyrimidine-5-carboxamide]
IC50 (HDAC1): 5.9 nM | IC50 (HDAC6): 2.4 nM | IC50 (HDAC3): 111 nM | IC50 (HDAC2): 5.2 nM

C[C@@H](C(=O)N1CCC(C)(Nc2ncc(C(=O)NO)cn2)CC1)c1ccccc1 [Compound 027, (R)—N-hydroxy-2-((4-methyl-1-(2-phenylpropanoyl)piperidin-4-yl)amino)pyrimidine-5-carboxamide]
IC50 (HDAC1): 130 nM | IC50 (HDAC6): 12 nM | IC50 (HDAC3): 422 nM | IC50 (HDAC2): 103 nM

CC(C)[C@H](C(=O)N1CCC(Nc2ncc(C(=O)NO)cn2)(c2ccccc2)CC1)c1ccccc1 (stereo in doubt) [Compound 026, N-hydroxy-2-((1-(3-methyl-2-phenylbutanoyl)-4-phenylpiperidin-4-yl)amino)pyrimidine-5-carboxamide]
IC50 (HDAC1): 206 nM | IC50 (HDAC6): 5 nM | IC50 (HDAC3): 1100 nM | IC50 (HDAC2): 173 nM
